Measurements from patent publication US12024552B2 (priority 2012, dated 2024).
Marks after values point to notes of the source that are not given here.

Experiments:
[1] = system: Influenza A/Vietnam/1203/2004 (H5N1) virus; set-up: species or system BALB/c mice; conditions: mouse, in vivo
[2] = system: influenza H1N1 and Streptococcus pneumoniae; set-up: species or system mice; conditions: mouse, in vivo

Structure (SMILES)	Hazard Ratio (95% CI) [1]	Live/Total [1]	Mean Day of Death ± SD [1]	Median Survival [1]	survival, H5N1 [1] [%]	rescue from death [2]
CCOC(=O)C1=C[C@@H](OC(CC)CC)[C@H](NC(C)=O)[C@@H](N)C1 [Oseltamivir, oseltamivir]	4.8 (1.6-14.3)	4/7*	11.3 ± 0.6	Undefined	60	
NC(=O)c1ncn([C@@H]2O[C@H](CO)[C@@H](O)[C@H]2O)n1 [Ribavirin, ribavirin]						failed to rescue animals from death
